{
  "source": "patent US20260008768A1",
  "about": "“UREA DERIVATIVES FOR INHIBITING NLRP3 AND USES THEREOF” (VENTUS THERAPEUTICS U.S., INC., priority 2023, published 2026)",
  "data": [
    {"biological_target": "human NLRP3 (Homo sapiens, UniProt Q96P20)", "sequence (Q96P20 whole entry)": "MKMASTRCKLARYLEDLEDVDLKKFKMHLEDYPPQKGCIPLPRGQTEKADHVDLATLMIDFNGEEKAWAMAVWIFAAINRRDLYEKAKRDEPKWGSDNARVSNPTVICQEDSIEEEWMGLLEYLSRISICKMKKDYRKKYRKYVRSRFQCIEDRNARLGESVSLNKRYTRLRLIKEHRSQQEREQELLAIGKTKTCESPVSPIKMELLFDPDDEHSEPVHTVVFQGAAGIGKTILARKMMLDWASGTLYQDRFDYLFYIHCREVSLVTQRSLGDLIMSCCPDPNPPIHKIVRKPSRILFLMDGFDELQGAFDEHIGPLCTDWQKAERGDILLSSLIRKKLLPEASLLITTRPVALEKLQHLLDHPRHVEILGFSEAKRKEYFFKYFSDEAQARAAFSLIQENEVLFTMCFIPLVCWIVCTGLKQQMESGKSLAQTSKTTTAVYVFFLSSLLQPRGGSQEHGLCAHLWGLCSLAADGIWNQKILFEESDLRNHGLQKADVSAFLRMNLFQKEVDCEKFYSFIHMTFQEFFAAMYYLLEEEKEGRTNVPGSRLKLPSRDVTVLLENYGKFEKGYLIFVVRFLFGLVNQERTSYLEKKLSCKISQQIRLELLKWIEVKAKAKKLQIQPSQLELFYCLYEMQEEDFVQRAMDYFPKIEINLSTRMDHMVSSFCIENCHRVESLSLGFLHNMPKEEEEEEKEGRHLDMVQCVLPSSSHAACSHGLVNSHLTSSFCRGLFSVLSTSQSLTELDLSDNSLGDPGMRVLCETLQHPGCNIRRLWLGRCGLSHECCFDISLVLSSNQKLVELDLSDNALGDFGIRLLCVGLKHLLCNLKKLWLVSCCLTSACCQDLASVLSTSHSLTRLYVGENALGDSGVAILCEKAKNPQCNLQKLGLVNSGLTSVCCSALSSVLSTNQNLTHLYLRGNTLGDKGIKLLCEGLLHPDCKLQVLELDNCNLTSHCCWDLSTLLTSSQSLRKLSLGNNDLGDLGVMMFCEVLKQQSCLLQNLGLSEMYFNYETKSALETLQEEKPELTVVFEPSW", "assay": "Scintillation Proximity (SPA) NLRP3 Assay, displacement of 3H-MCC950", "format": "binding", "settings": "Table B, activity class; displacement of 3H-MCC950 from human NLRP3", "description": "Improved NLRP3 binding correlates with increased affinity for NLRP3 protein and, by extension, increased ability to interfere with its function.\nSPA experiments were conducted in a total volume of 20 μL assay buffer containing 20 mM HEPES pH 7.5, 150 mM NaCl, 5 mM MgCl2, 0.01% (v/v) Tween-20, 0.01% (w/v) bovine serum albumin (BSA) and 100 μM of adenosine diphosphate (ADP). A human NLRP3 protein (350 nM) (see, e.g., Sharif et al., Nature (2019) 570:338-343; Hochheiser et al., Nature (2022) 604:184-189; Adreeva et al., Cell (2021) 184:6299-6312; Wang et al., J Exp. Med. (2021) 219:e20211147) was incubated with various concentration of compounds in 5% dimethyl sulfoxide (DMSO) final for 15 minutes at room temperature in a white half-area 96 well OptiPlate (PerkinElmer #6002290) before adding 125 nM final of 3H-MCC950. After the addition of radiolabeled MCC950, the plate was incubated for 60 minutes at room temperature before adding 0.25 mg/ml of copper-coated polyvinyltoluene SPA beads (PerkinElmer #RPNQ0095). The plate was then transferred to a microplate counter (PerkinElmer 2450 Microbeta) to collect binding data. Binding data was analyzed 6 hrs post-PVT bead addition to allow sufficient time to reach equilibrium. Specific binding was calculated from averaged duplicates by subtracting signal from wells without NLRP3 protein.\nSPA NLRP3 IC50 assay results are provided in Table B. “A” activity=<1 uM; “B” activity=1-10 uM; “C” activity=>10-50 uM; “D” activity=>50 uM-100 uM; and “E” activity=>100 uM.", "units": {"IC50": "µM"}, "values": [
      {"smiles": "C[C@@H]1C[C@H](NC(=O)N(C)c2ccc(OC(F)(F)F)cc2)[C@H]2CC[C@@H]1N2c1nnn[nH]1", "note": "(single isomer, unassigned) [45B*]", "IC50": "10 to 50"},
      {"smiles": "C[C@H]1C[C@@H](NC(=O)N(C)c2ccc(OC(F)(F)F)cc2)[C@@H]2CC[C@H]1N2c1nnn[nH]1", "note": "(single isomer, unassigned) [45C*]", "IC50": "50 to 100"},
      {"smiles": "C[C@H]1C[C@H](NC(=O)N(C)c2ccc(OC(F)(F)F)cc2)[C@@H]2CC[C@H]1N2c1nnn[nH]1", "note": "(single isomer, unassigned) [45D*]", "IC50": "1 to 10"},
      {"smiles": "C[C@@H]1C[C@H](NC(=O)N(C)c2ccc(C3CC3)cc2)[C@H]2CC[C@@H]1N2c1nnn[nH]1", "note": "(single isomer, unassigned) [46B*]", "IC50": "50 to 100"},
      {"smiles": "C[C@H]1C[C@@H](NC(=O)N(C)c2ccc(C3CC3)cc2)[C@@H]2CC[C@H]1N2c1nnn[nH]1", "note": "(single isomer, unassigned) [46C*]", "IC50": "10 to 50"},
      {"smiles": "C[C@H]1C[C@H](NC(=O)N(C)c2ccc(C3CC3)cc2)[C@@H]2CC[C@H]1N2c1nnn[nH]1", "note": "(single isomer, unassigned) [46D*]", "IC50": "10 to 50"},
      {"smiles": "C[C@@H]1C[C@H](NC(=O)N(C)c2ccc(C(F)(F)F)c(F)c2F)[C@H]2CC[C@@H]1N2c1nnn[nH]1", "note": "(single isomer, unassigned) [47B*]", "IC50": "50 to 100"},
      {"smiles": "C[C@H]1C[C@@H](NC(=O)N(C)c2ccc(C(F)(F)F)c(F)c2F)[C@@H]2CC[C@H]1N2c1nnn[nH]1", "note": "(single isomer, unassigned) [47C*]", "IC50": "> 100"},
      {"smiles": "C[C@H]1C[C@H](NC(=O)N(C)c2ccc(C(F)(F)F)c(F)c2F)[C@@H]2CC[C@H]1N2c1nnn[nH]1", "note": "(single isomer, unassigned) [47D*]", "IC50": "10 to 50"},
      {"smiles": "C[C@@H]1C[C@H](NC(=O)N(C)c2ccc(C(F)(F)F)cc2F)[C@H]2CC[C@@H]1N2c1nnn[nH]1", "note": "(single isomer, unassigned) [48B*]", "IC50": "> 100"},
      {"smiles": "C[C@H]1C[C@@H](NC(=O)N(C)c2ccc(C(F)(F)F)cc2F)[C@@H]2CC[C@H]1N2c1nnn[nH]1", "note": "(single isomer, unassigned) [48C*]", "IC50": "50 to 100"},
      {"smiles": "C[C@H]1C[C@H](NC(=O)N(C)c2ccc(C(F)(F)F)cc2F)[C@@H]2CC[C@H]1N2c1nnn[nH]1", "note": "(single isomer, unassigned) [48D*]", "IC50": "10 to 50"},
      {"smiles": "C[C@@H]1C[C@H](NC(=O)N(C)c2ccc(C(F)(F)F)c(F)c2)[C@H]2CC[C@@H]1N2c1nnn[nH]1", "note": "(single isomer, unassigned) [49B*]", "IC50": "> 100"},
      {"smiles": "C[C@H]1C[C@@H](NC(=O)N(C)c2ccc(C(F)(F)F)c(F)c2)[C@@H]2CC[C@H]1N2c1nnn[nH]1", "note": "(single isomer, unassigned) [49C*]", "IC50": "50 to 100"},
      {"smiles": "C[C@H]1C[C@H](NC(=O)N(C)c2ccc(C(F)(F)F)c(F)c2)[C@@H]2CC[C@H]1N2c1nnn[nH]1", "note": "(single isomer, unassigned) [49D*]", "IC50": "50 to 100"},
      {"smiles": "C[C@@H]1C[C@@H](NC(=O)N(C)c2ccc(Cl)c(F)c2)[C@H]2CC[C@@H]1N2c1nnn[nH]1", "note": "(single isomer, unassigned) [50A*]", "IC50": "1 to 10"},
      {"smiles": "C[C@@H]1C[C@H](NC(=O)N(C)c2ccc(Cl)c(F)c2)[C@H]2CC[C@@H]1N2c1nnn[nH]1", "note": "(single isomer, unassigned) [50B*]", "IC50": "> 100"},
      {"smiles": "C[C@H]1C[C@@H](NC(=O)N(C)c2ccc(Cl)c(F)c2)[C@@H]2CC[C@H]1N2c1nnn[nH]1", "note": "(single isomer, unassigned) [50C*]", "IC50": "> 100"},
      {"smiles": "C[C@H]1C[C@H](NC(=O)N(C)c2ccc(Cl)c(F)c2)[C@@H]2CC[C@H]1N2c1nnn[nH]1", "note": "(single isomer, unassigned) [50D*]", "IC50": "10 to 50"},
      {"smiles": "C[C@@H]1C[C@H](NC(=O)N(C)c2ccc(OC(F)(F)F)c(F)c2)[C@H]2CC[C@@H]1N2c1nnn[nH]1", "note": "(single isomer, unassigned) [51B*]", "IC50": "50 to 100"},
      {"smiles": "C[C@H]1C[C@@H](NC(=O)N(C)c2ccc(OC(F)(F)F)c(F)c2)[C@@H]2CC[C@H]1N2c1nnn[nH]1", "note": "(single isomer, unassigned) [51C*]", "IC50": "> 100"},
      {"smiles": "C[C@H]1C[C@H](NC(=O)N(C)c2ccc(OC(F)(F)F)c(F)c2)[C@@H]2CC[C@H]1N2c1nnn[nH]1", "note": "(single isomer, unassigned) [51D*]", "IC50": "10 to 50"},
      {"smiles": "C[C@@H]1C[C@H](NC(=O)N(C)c2ccc(OC(F)F)c(F)c2)[C@H]2CC[C@@H]1N2c1nnn[nH]1", "note": "(single isomer, unassigned) [52B*]", "IC50": "> 100"},
      {"smiles": "C[C@H]1C[C@@H](NC(=O)N(C)c2ccc(OC(F)F)c(F)c2)[C@@H]2CC[C@H]1N2c1nnn[nH]1", "note": "(single isomer, unassigned) [52C*]", "IC50": "> 100"},
      {"smiles": "C[C@H]1C[C@H](NC(=O)N(C)c2ccc(OC(F)F)c(F)c2)[C@@H]2CC[C@H]1N2c1nnn[nH]1", "note": "(single isomer, unassigned) [52D*]", "IC50": "10 to 50"},
      {"smiles": "C[C@@H]1C[C@@H](NC(=O)N(C)c2ccc(C(F)F)c(F)c2)[C@H]2CC[C@@H]1N2c1nnn[nH]1", "note": "(single isomer, unassigned) [53A*]", "IC50": "1 to 10"},
      {"smiles": "C[C@@H]1C[C@H](NC(=O)N(C)c2ccc(C(F)F)c(F)c2)[C@H]2CC[C@@H]1N2c1nnn[nH]1", "note": "(single isomer, unassigned) [53B*]", "IC50": "> 100"},
      {"smiles": "C[C@H]1C[C@@H](NC(=O)N(C)c2ccc(C(F)F)c(F)c2)[C@@H]2CC[C@H]1N2c1nnn[nH]1", "note": "(single isomer, unassigned) [53C*]", "IC50": "> 100"},
      {"smiles": "C[C@H]1C[C@H](NC(=O)N(C)c2ccc(C(F)F)c(F)c2)[C@@H]2CC[C@H]1N2c1nnn[nH]1", "note": "(single isomer, unassigned) [53D*]", "IC50": "> 100"},
      {"smiles": "C[C@@H]1C[C@H](NC(=O)N(C)c2ccc(C3CC3)c(F)c2)[C@H]2CC[C@@H]1N2c1nnn[nH]1", "note": "(single isomer, unassigned) [54B*]", "IC50": "> 100"},
      {"smiles": "C[C@H]1C[C@@H](NC(=O)N(C)c2ccc(C3CC3)c(F)c2)[C@@H]2CC[C@H]1N2c1nnn[nH]1", "note": "(single isomer, unassigned) [54C*]", "IC50": "> 100"},
      {"smiles": "C[C@H]1C[C@H](NC(=O)N(C)c2ccc(C3CC3)c(F)c2)[C@@H]2CC[C@H]1N2c1nnn[nH]1", "note": "(single isomer, unassigned) [54D*]", "IC50": "10 to 50"},
      {"smiles": "C[C@@H]1C[C@H](NC(=O)N(C)c2ccc(C(F)F)cc2F)[C@H]2CC[C@@H]1N2c1nnn[nH]1", "note": "(single isomer, unassigned) [55B*]", "IC50": "> 100"},
      {"smiles": "C[C@H]1C[C@@H](NC(=O)N(C)c2ccc(C(F)F)cc2F)[C@@H]2CC[C@H]1N2c1nnn[nH]1", "note": "(single isomer, unassigned) [55C*]", "IC50": "50 to 100"},
      {"smiles": "C[C@H]1C[C@H](NC(=O)N(C)c2ccc(C(F)F)cc2F)[C@@H]2CC[C@H]1N2c1nnn[nH]1", "note": "(single isomer, unassigned) [55D*]", "IC50": "10 to 50"},
      {"smiles": "C[C@@H]1C[C@H](NC(=O)N(C)c2ccc(OC(F)(F)F)cc2F)[C@H]2CC[C@@H]1N2c1nnn[nH]1", "note": "(single isomer, unassigned) [56B*]", "IC50": "> 100"},
      {"smiles": "C[C@H]1C[C@@H](NC(=O)N(C)c2ccc(OC(F)(F)F)cc2F)[C@@H]2CC[C@H]1N2c1nnn[nH]1", "note": "(single isomer, unassigned) [56C*]", "IC50": "50 to 100"},
      {"smiles": "C[C@H]1C[C@H](NC(=O)N(C)c2ccc(OC(F)(F)F)cc2F)[C@@H]2CC[C@H]1N2c1nnn[nH]1", "note": "(single isomer, unassigned) [56D*]", "IC50": "1 to 10"},
      {"smiles": "C[C@@H]1C[C@H](NC(=O)N(C)c2ccc(OC(F)F)cc2F)[C@H]2CC[C@@H]1N2c1nnn[nH]1", "note": "(single isomer, unassigned) [57B*]", "IC50": "> 100"},
      {"smiles": "C[C@H]1C[C@@H](NC(=O)N(C)c2ccc(OC(F)F)cc2F)[C@@H]2CC[C@H]1N2c1nnn[nH]1", "note": "(single isomer, unassigned) [57C*]", "IC50": "50 to 100"},
      {"smiles": "C[C@H]1C[C@H](NC(=O)N(C)c2ccc(OC(F)F)cc2F)[C@@H]2CC[C@H]1N2c1nnn[nH]1", "note": "(single isomer, unassigned) [57D*]", "IC50": "1 to 10"},
      {"smiles": "C[C@@H]1C[C@H](NC(=O)N(C)c2ccc(OC(F)F)c(F)c2F)[C@H]2CC[C@@H]1N2c1nnn[nH]1", "note": "(single isomer, unassigned) [58B*]", "IC50": "> 100"},
      {"smiles": "C[C@H]1C[C@@H](NC(=O)N(C)c2ccc(OC(F)F)c(F)c2F)[C@@H]2CC[C@H]1N2c1nnn[nH]1", "note": "(single isomer, unassigned) [58C*]", "IC50": "50 to 100"},
      {"smiles": "C[C@H]1C[C@H](NC(=O)N(C)c2ccc(OC(F)F)c(F)c2F)[C@@H]2CC[C@H]1N2c1nnn[nH]1", "note": "(single isomer, unassigned) [58D*]", "IC50": "10 to 50"},
      {"smiles": "C[C@@H]1C[C@H](NC(=O)N(C)c2ccc(OC(F)(F)F)c(F)c2F)[C@H]2CC[C@@H]1N2c1nnn[nH]1", "note": "(single isomer, unassigned) [59B*]", "IC50": "50 to 100"},
      {"smiles": "C[C@H]1C[C@@H](NC(=O)N(C)c2ccc(OC(F)(F)F)c(F)c2F)[C@@H]2CC[C@H]1N2c1nnn[nH]1", "note": "(single isomer, unassigned) [59C*]", "IC50": "> 100"},
      {"smiles": "C[C@H]1C[C@H](NC(=O)N(C)c2ccc(OC(F)(F)F)c(F)c2F)[C@@H]2CC[C@H]1N2c1nnn[nH]1", "note": "(single isomer, unassigned) [59D*]", "IC50": "10 to 50"},
      {"smiles": "C[C@@H]1C[C@H](NC(=O)N(C)c2c(F)cc(C3CC3)cc2F)[C@H]2CC[C@@H]1N2c1nnn[nH]1", "note": "(single isomer, unassigned) [60B*]", "IC50": "> 100"},
      {"smiles": "C[C@H]1C[C@@H](NC(=O)N(C)c2c(F)cc(C3CC3)cc2F)[C@@H]2CC[C@H]1N2c1nnn[nH]1", "note": "(single isomer, unassigned) [60C*]", "IC50": "50 to 100"}
    ]}
  ]
}
